Assay results published in patent EP0240630A2, “Treatment of skin of over androgenicity using compositions containing pregnenolone” (priority 1986, dated 1987).

What was measured:
[1] = system: flank organ; conditions: topical application, graded doses, 5 days/week for 2 weeks; cited from earlier work
[2] = system: flank organs; experiment: Stimulation of female hamster flank organ growth by topical DHA; assay type: in vivo, female hamsters; conditions: 12 µg, 60 µg, 120 µg applied to the right side, 7 days/week for 6 weeks
Method: Before testing the anti-androgenic properties of pregnenolone on hamster flank organs and relying on the results, a centrally important question therefore needed to be answered -- Could DHA be shown to stimulate growth in the flank organs? This question was answered by applying graded doses of DHA, 12 µg, 60 µg, 120 µg to the right side of female hamsters (5 hamsters/group), for 7 days/week for 6 weeks.

[3] = system: 3β-hydroxysteroid dehydrogenase Δ^4-5-isomerase (3βHSD); experiment: Inhibition of 3βHSD conversion of 3H-DHA in rat preputial gland homogenate (TLC/scintillation counting); assay type: biochemical; conditions: rat preputial gland homogenate, 1,2-³H-DHA with 100 nmoles DHA, 37°C; range of four separate incubations
Method: To assess the androgen inhibiting activity of pregnenolone, rat preputial gland was employed to investigate the in vitro androgenic action of DHA. […] A pair of the glands are situated in the prepuce of the rate of either sex weighing between 125-200 mg in an average 200 g rat, being slightly larger in the male animal. The animals employed were female Sprague-Dawley rats, 10-12 weeks old and weighing 225-300 g.
The experimental format, stated broadly, was to excise preputial glands from rats and prepare a homogenate therefrom. A predetermined amount of homogenate (the sample) was then spiked with radiolabeled (with ³H) DHA, in the presence or absence of pregnenolone, and the sample was incubated. […] The metabolites were quantitated by removal from the thin layer plate and counting in a scintillation counter. By determining the extent of metabolite formation, the extent of inhibition of 3βHSD could be correspondingly determined. […]
Experiments were initially conducted to ensure that DHA and its metabolites could be separated chromatographically. […] The position of the steroid can be readily traced with this method. […] Elution and quantitative evaluation of steroids can be effected after removal of the iodine. […] For quantitation the plates were then scraped in 1 cm sections for radioassay of ³H in a Packard Tri- Carb liquid scintillation counter. […]

[4] = system: 3βHSD; experiment: In vivo metabolism of injected 1,2-3H-DHA in DHA-stimulated hamster flank organs after topical inhibitor; design: species or system Syrian Golden Hamsters; conditions: female hamsters, pregnenolone topical for 3 days; 1 hour after intracardial ³H-DHA
Text: The effects of hormones and hormonally active substances on sebaceous glands can also be evaluated using the Syrian hamster flank organs as an animal model. The results of experiments using hamsters are valuable inasmuch as they can provide in vivo confirmation of the in vitro experiments like those described above using rat preputial gland. The flank organs, also called the costovertebral spot or the costovertebral organ, are sebaceous structures located on each flank of the animal. Like the sebaceous glands of the human and the preputial gland of the rate they are androgen dependent (Voigt and Hsia, 1973; Gomez and Frost, 1969; Frost and Gomez, 1973).
Hamster flank organs were accordingly used to test in vivo the androgenic inhibitory properties of pregnenolone.
Female Syrian Golden Hamsters were used in this experiment. […]
On the afternoon of day 3, an intracardial injection of 1,2-³H-DHA (5µCi/0.1 ml saline buffer solution) was given to both experimental groups anesthetized with ether. […] Each organ was then placed in a 16 mm x 150 mm test tube containing methanol and was homogenized, extracted and analyzed for steroid metabolites by separating the metabolites using thin layer chromatography as described above, scraping the thus separated metabolites from the thin layer plates, and quantitating using a scintillation counter. […]
Results are shown in Figure 2 expressed as DPM/mg tissue.

[5] = system: acne vulgaris; assay type: in vivo, human
Method: The following experiment was conducted and is a typical trial. In a double-blind clinical trial 23 patients with acne vulgaris volunteered to participate. Fifteen patients (11 females and 4 males) were given a 1% solution of pregnenolone dissolved in isopropanol containing 1% glycerol, and 8 patients (5 females and 3 males) were given a 1% solution of glycerol in isopropanol. Neither the patients nor the attending dermatologist knew whether or not the dispensed solution contained pregnenolone. The patients were instructed to stop using their previous medications for two weeks and then to apply the given solution to their faces twice daily. They were reexamined biweekly.

[6] = Solubility in formulation vehicles; assay type: physicochemical
Text: With regard to formulation for use with humans, because pregnenolone is insoluble in water, most aqueous base vehicles or carriers are not useful in the invention. Vehicles with a high content of alcohols, such as isopropanol or mixtures of alcohols with longer (C₄-C₁₀) alkane or alkene chains, in which pregnenolone is soluble, would afford a suitable base for the formulation as liquid, gel or cream. Glycerol may be added in the preparation as an emollient. Glycerol is hygroscopic; it keeps the skin surface from drying. Other additions of moisturizers or perfumes as known in the art are compatible with pregnenolone.

[7] = 1% pregnenolone in isopropanol containing 1% glycerol, face, twice daily, twelve weeks, 15 patients

CC(=O)[C@H]1CC[C@H]2[C@@H]3CCC4=CC(=O)CC[C@]4(C)[C@H]3CC[C@]12C [progesterone]
flank organ sebaceous gland growth and pigmentation [1]: did not cause flank organ growth or increased pigmentation

C[C@]12CC[C@H](O)CC1=CC[C@@H]1[C@@H]2CC[C@]2(C)C(=O)CC[C@@H]12 [DHA, dehydroepiandrosterone]
stimulation of flank organ growth [2]: stimulation of both flank organs

C[C@]12CC[C@H]3[C@@H](CCC4=CC(=O)CC[C@@]43C)[C@@H]1CC[C@@H]2O [testosterone]
flank organ sebaceous gland growth and pigmentation [1]: unilateral stimulation of sebaceous gland growth and pigmentation

C[C@]12CCC(=O)C=C1CC[C@@H]1[C@@H]2CC[C@]2(C)C(=O)CC[C@@H]12 [androstenedione, Δ⁴-androstenedione]
flank organ sebaceous gland growth and pigmentation [1]: unilateral stimulation of sebaceous gland growth and pigmentation

CC(=O)[C@H]1CC[C@H]2[C@@H]3CC=C4C[C@@H](O)CC[C@]4(C)[C@H]3CC[C@]12C [pregnenolone, Δ⁵-pregnene-3β-o1-20-one]
inhibition of the 3βHSD for DHA (Δ⁴-3-keto product formed, relative to absence of the inhibitor) [3]: 91-92%
formation of testosterone, DHT and androstanediol in flank organs, control versus treated [4]: Control hamsters, not treated with inhibitor, show greater formation
patients noted definite improvement, with reduction in the size and number of lesions [5, 7]: 33%
patients noted no change in lesions or oiliness [5, 7]: 26%
patients noted reduction of oiliness [5, 7]: 13%
patients noted slight reduction of the number of lesions and a reduction in the oiliness of the skin [5, 7]: 26%
patients showed marked reductions in skin oiliness and in pore size ([5]; 1% pregnenolone in isopropanol containing 1% glycerol, twelve weeks, 15 patients): two
patients' comparison with other medications used previously ([5]; claim of patients who had used other medications previously): more effective and more acceptable
irritation or discomfort caused by the topical application ([5]; human, in vivo): no complaint
solubility in vehicles with a high content of alcohols ([6]; isopropanol or mixtures of alcohols with longer (C₄-C₁₀) alkane or alkene chains): soluble
solubility in water ([6]; water): insoluble

C[C@]12CC[C@H](O)C[C@@H]1CC[C@@H]1[C@@H]2CC[C@]2(C)C(=O)CC[C@@H]12 [epiandrosterone]
flank organ sebaceous gland growth and pigmentation [1]: did not cause flank organ growth or increased pigmentation

C[C@]12CCC(=O)C[C@@H]1CC[C@@H]1[C@@H]2CC[C@]2(C)[C@@H](O)CC[C@@H]12 [DHT, dihydrotestosterone]
flank organ sebaceous gland growth and pigmentation [1]: unilateral stimulation of sebaceous gland growth and pigmentation

C[C@]12CC[C@@H](O)C[C@@H]1CC[C@@H]1[C@@H]2CC[C@]2(C)C(=O)CC[C@@H]12 [androsterone]
flank organ sebaceous gland growth and pigmentation [1]: did not cause flank organ growth or increased pigmentation

C[C@]12CCC(=O)C=C1CC[C@@H]1[C@@H]2CC[C@@]2(C)[C@H]1CC[C@]2(C)O [methyltestosterone]
flank organ sebaceous gland growth and pigmentation [1]: unilateral stimulation of sebaceous gland growth and pigmentation
